Data reported in ChEMBL document CHEMBL1139098, “3H-[1,2,4]-Triazolo[5,1-i]purin-5-amine derivatives as adenosine A2A antagonists” (Bioorg Med Chem Lett, 2007).

Key:
Homo sapiens = species: Homo sapiens; test: Selectivity for human adenosine A2A receptor over human adenosine A1 receptor
Adenosine receptor A2a = Adenosine receptor A2a (Homo sapiens, UniProt P29274); test: Antagonist activity at human adenosine A2A receptor; format: functional
[1] = AUC in rat catalepsy model at 3.0 mg/kg, po; format: ADME, organism-based; design: dose 3 mg/kg, route oral; conditions: in vivo
Rattus norvegicus [2] = test: Effect on rat catalepsy model at 3 mg/kg, po after 1 hr; format: functional
Rattus norvegicus [3] = test: Effect on rat catalepsy model at 1 mg/kg, po after 1 hr; format: functional
Rattus norvegicus [4] = test: Effect on rat catalepsy model at 1 mg/kg, po after 4 hrs; format: functional
Rattus norvegicus [5] = test: Effect on rat catalepsy model at 3 mg/kg, po after 4 hrs; format: functional

Adenosine receptor A2a, sequence (P29274 whole entry): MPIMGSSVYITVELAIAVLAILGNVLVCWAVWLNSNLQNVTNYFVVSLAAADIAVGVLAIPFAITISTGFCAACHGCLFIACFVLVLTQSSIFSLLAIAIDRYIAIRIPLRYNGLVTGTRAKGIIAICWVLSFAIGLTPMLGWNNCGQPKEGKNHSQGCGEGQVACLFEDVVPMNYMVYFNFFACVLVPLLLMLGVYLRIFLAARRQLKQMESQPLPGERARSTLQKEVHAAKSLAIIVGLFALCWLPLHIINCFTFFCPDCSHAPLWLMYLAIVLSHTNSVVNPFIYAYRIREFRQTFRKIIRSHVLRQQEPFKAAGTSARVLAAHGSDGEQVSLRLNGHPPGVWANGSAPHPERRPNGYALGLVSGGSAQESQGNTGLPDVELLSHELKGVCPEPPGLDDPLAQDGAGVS

Compound | Selectivity ratio (Homo sapiens) | Ki (Adenosine receptor A2a) [nM] | also measured
Nc1nc2c(ncn2CCN2CCOCC2)c2nc(-c3ccco3)nn12 | 37 | 6.3 | 
Nc1nc2c(ncn2CCN2CCN(c3ccc(F)cc3F)CC2)c2nc(-c3ccco3)nn12 | 88 | 0.7 | 
Nc1nc2c(ncn2CCN2CCN(c3ccc(Cl)cn3)CC2)c2nc(-c3ccco3)nn12 | 333 | 0.9 | 
COCCOc1ccc(C2CCN(CCn3cnc4c3nc(N)n3nc(-c5ccco5)nc43)CC2)cc1 | 519 | 0.7 | 
COCCOc1ccc(N2CCN(CCn3cnc4c3nc(N)n3nc(-c5ccccc5C(F)(F)F)nc43)CC2)cc1 | 181 | 10 | 
Nc1nc2c(ncn2Cc2ccccc2Br)c2nc(-c3ccco3)nn12 | 7 | 4.6 | 
COCCOc1ccc(N2CCN(CCn3cnc4c3nc(N)n3nc(-c5ccccc5C)nc43)CC2)cc1 | 76 | 20.5 | 
COCCOc1ccc(N2CCN(CCn3cnc4c3nc(N)n3nc(-c5ccccc5)nc43)CC2)cc1 | 91 | 3.7 | 
Nc1nc2c(ncn2CCN2CCN(c3nccs3)CC2)c2nc(-c3ccco3)nn12 | 138 | 1.7 | 
Nc1nc2c(ncn2CCN2CCN(c3ccccc3)CC2)c2nc(-c3ccco3)nn12 | 182 | 1.7 | 
Nc1nc2c(ncn2CCN2CCC(c3ccc(F)cc3)CC2)c2nc(-c3ccco3)nn12 | 196 | 0.9 | 
Cc1ccc(N2CCN(CCn3cnc4c3nc(N)n3nc(-c5ccco5)nc43)CC2)nc1 | 162 | 1 | 
COCCOc1ccc(N2CCN(CCn3cnc4c3nc(N)n3nc(-c5ccco5)nc43)CC2)cc1 | 669 | 0.9 | AUC [1]: 524 ng·h/mL; Activity (Rattus norvegicus [2]): 80%; Activity (Rattus norvegicus [3]): 55%; Activity (Rattus norvegicus [4]): 50%; Activity (Rattus norvegicus [5]): 50%
COCCOc1ccc(N2CCN(CCn3cnc4c3nc(N)n3nc(-c5ccccc5F)nc43)CC2)cc1 | 15 | 9.3 | 
COCCOc1ccc(N2CCN(CCn3cnc4c3nc(N)n3nc(-c5ccco5)nc43)CC2)c(C(F)(F)F)c1 | 218 | 0.4 | 
COCCOc1ccc(N2CCN(CCn3cnc4c3nc(N)n3nc(-c5cccc[n+]5[O-])nc43)CC2)cc1 | 17 | 89.7 | 
Nc1nc2c(ncn2Cc2ccccc2C(F)(F)F)c2nc(-c3ccco3)nn12 | 30 | 4.6 | 
Nc1nc2c(ncn2CCN2CCN(c3cccc(Cl)c3)CC2)c2nc(-c3ccco3)nn12 | 371 | 0.4 | 
Nc1nc2c(ncn2Cc2ccccc2Cl)c2nc(-c3ccco3)nn12 | 9 | 1.7 | 
Nc1nc2c(ncn2CCc2ccccc2)c2nc(-c3ccco3)nn12 | 33 | 4.1 | 
COCCOc1ccc(N2CCN(CCn3cnc4c3nc(N)n3nc(-c5ccco5)nc43)CC2)c(F)c1 | 517 | 0.8 | 
Nc1nc2c(ncn2CCN2CCN(c3ncc(F)cn3)CC2)c2nc(-c3ccco3)nn12 | 378 | 1.4 | 
Nc1nc2c(ncn2Cc2ccccc2)c2nc(-c3ccco3)nn12 | 17 | 1.5 | 
COCCOc1ccc(N2CCN(CCn3cnc4c3nc(N)n3nc(-c5ccccn5)nc43)CC2)cc1 | 108 | 12.6 | 
CCCn1cnc2c1nc(N)n1nc(-c3ccco3)nc21 | 50 | 5.9 | 
COc1ccc(N2CCN(CCn3cnc4c3nc(N)n3nc(-c5ccco5)nc43)CC2)cc1 | 1700 | 0.1 | 
Nc1nc2c(ncn2CCN2CCN(c3ccc(Cl)cc3F)CC2)c2nc(-c3ccco3)nn12 | 403 | 0.3 | 
COCCOc1ccc(N2CCN(CCn3cnc4c3nc(N)n3nc(-c5cccc(F)c5)nc43)CC2)cc1 | 83 | 2 | 
